Patent US20240050513A1, “COMPOSITION FOR PREVENTING, AMELIORATING, OR TREATING DISEASE CAUSED BY PROTEIN NITRATION […] WITH TERMINAL TYROSINE AS EFFECTIVE COMPONENT” (INDUSTRY-ACADEMIC COOPERATION FOUNDATION GYEONGSANG …, priority 2021, published 2024)
Read-outs that look alike come from different tables or passages of the source.

Experiments:
[1] = tested on: glutamatergic neurons of 3xTG-vGluT2-Cre::tdTomato mice; test: sEPSC of glutamatergic neurons in mPFC of fluorescent labeled Alzheimer's disease model; type: in vivo, mouse; details: 1xYQ diet from 2 months, measured at 6 to 8 months
Experimental: At two months of age, 3xTG-vGluT2-Cre::tdTomato mice were fed with diet supplemented with tyrosine-containing peptide (1xYQ). At 6 to 8 months of age, the spontaneous excitatory postsynaptic current (sEPSC) was measured to evaluate the activity of glutamatergic neurons. For recording membrane currents, a 200 μm-thick brain cross-section was placed in a recording chamber filled with artificial cerebrospinal fluid at a rate of 1.5 to 2 ml/min, and, under a holding potential of −70 mV, whole-cell voltage clamp recordings were obtained from visually identified glutamatergic neurons in the medial prefrontal cortex (mPFC). Glutamatergic currents were isolated by the addition of picrotoxin (100 μM). All recordings were performed at 30±2° C., and, as the pipette solution, a solution containing 30 mM KCl, 5 mM CaCl2, 10 mM EGTA, 10 mM HEPES, 2 mM MgATP, 0.5 mM Na2GTP, and 5 mM phosphocreatine was used.

[2] = tested on: ischemic stroke Mongolian gerbils; test: Neuronal cell death in ischemic stroke model (cell count, immunohistochemical staining); type: in vivo
Experimental: Three-month-old male Mongolian gerbils were induced with general anesthesia using 3% isoflurane and the anesthesia was maintained with 2.5% isoflurane gas. After sterilizing the neck area, a midline incision was made to expose both common carotid arteries, and microvessel clip was used to block the blood flow for 5 minutes, inducing cerebral ischemia to simulate a stroke. During the application of the microvessel clip, the body temperature was maintained at 37.0±0.5° C., and animals undergoing sham operation were used as the control group.
After inducing ischemia, the animal was, under reperfusion, intraperitoneally administered with YQ peptide at a dose of 200 mg/kg, three times every 24 hours. On the fourth day, the animal was sacrificed, and brain tissues were collected to measure the number of dead neuronal cell.
Immunohistochemical staining was carried out to examine changes in neuronal cells and microglial cells and also a change in related factors in the hippocampus of an ischemic brain injury animal model. Specifically, after inducing ischemia, YQ peptide was administered intraperitoneally three times every 24 hours at a dose of 200 mg/kg under reperfusion. A control group was administered with a vehicle (i.e., 0.9% saline) instead of the peptide. On the 4th day, the animal was sacrificed, and brain tissue was collected and fixed with 4% paraformaldehyde at 4° C. Subsequently, the tissue was added to sucrose solutions of increasing concentrations (i.e., 10%, 20%, and 30%), frozen using liquid nitrogen, and sectioned into continuous slice specimens with a thickness of 30 μm. The specimens were stored in a cryoprotective solution at −20° C. The brain tissue specimen was rinsed three times for 10 minutes each with 0.01 M PBS and treated with 0.3% H2O2 for 30 minutes to eliminate endogenous peroxidase present in the tissue. To prevent any nonspecific immune reaction, the specimen was incubated for 30 minutes with 5% normal serum corresponding to each antibody. […]

[3] = tested on: high-fat diet C57BL/6 mice
Experimental: Three-week-old male C57BL/6 mice were purchased from Koatech and housed in the animal facility under controlled conditions of temperature (22±2° C.), humidity (50±5%), and a 12-hour light-dark cycle. Two mice were housed per a cage. […] The mice were maintained on their respective diets for a duration of 17 weeks.
With an interval of one week, the body weight and food intake of each animal were measured. Additionally, at 1, 5, or 8 weeks after the start of the experiment, fasting blood glucose level was measured using an Accu-Check glucose meter.
At 15 weeks after the start of the test, a glucose tolerance test (GTT) was performed, and at 16 weeks, an insulin tolerance test (ITT) was carried out. For the
GTT, after a 12-hour fasting period, a glucose solution of 2 g/kg was administered through intraperitoneal injection, and blood samples were collected from the vein at 0, 20, 60, 90, and 120 minutes to measure blood glucose level. For the ITT, after a 6-hour fasting period, insulin at a dose of 0.75 U/kg was administered through intraperitoneal injection, and blood samples were collected from the vein at 0, 15, 30, 60, and 120 minutes to measure blood glucose level.
The urine volume (ml) was measured by collecting urine from the metabolic cages over a 16-hour period, and the fat mass was measured for each mouse using the EchoMRITM device and expressed as a percentage (%) of body weight.
The insulin concentration was measured using an ELISA kit (Crystal Chem, Ultra-Sensitive Mouse Insulin ELISA Kit), and the alanine aminotransferase (ALT) concentration was measured using an assay kit (IVD Lab Co., ChemiLab GPT (ALT) assay kit). Additionally, the concentration of reactive oxygen species/reactive nitrogen species (ROS/RNS) was measured by using an assay kit (Cell Biolabs, Inc., OxiSelect™ In Vitro ROS/RNS Assay Kit).
After anesthesia, liver tissues were dissected and rapidly frozen in liquid nitrogen. Some tissues were fixed in 10% formalin, and 5 μm-thick tissue slides were prepared from paraffin blocks. The tissues were then stained with H&E (hematoxylin and eosin) and observed under a microscope (Olympus, CKX41) for imaging.
A decrease in insulin receptor in muscles in metabolic disorders reduces the sensitivity to insulin signal, thus limiting the ability to utilize glucose in the muscles to cause sarcopenia. The liver tissue was homogenized in RIPA buffer, and protein quantification was performed using the BCA method. Western blot analysis was then conducted using an anti-insulin receptor-beta (IRβ) antibody.
It is known that a decrease in renal function leads to an increase in the concentration of albumin and a decrease in creatinine in urine. Therefore, the albumin and creatinine levels in urine were measured using mouse albumin ELISA kit (Abcam) and creatinine assay kit (Abcam), respectively, in each test animal. The albumin/creatinine ratio was then calculated. Additionally, 10 μL of blood plasma or 40 mg of homogenized liver tissue were subjected to centrifugation at 10,000 g for 10 minutes, and the supernatant was separated to measure the triglycerides (TG) level in plasma or liver by using a triglyceride measurement kit (Cayman).

## tyrosine-glutamine [YQ]
[1]
  glutamatergic neuronal activity (sEPSC): increased
[2]; 200 mg/kg i.p. three times every 24 hours, fourth day
  number of neuronal cells: increase
[2]; hippocampal CA1 region, 200 mg/kg i.p. three times every 24 hours, 4th day
  cells found to survive compared to the sham operation group: approximately 60.7%
[2]; immunohistochemical staining, 200 mg/kg i.p. three times
  morphological changes in glial cells: minimal morphological changes
[3]; HFD+1xYQ vs HFD, 1, 5 or 8 weeks
  fasting blood glucose level: decrease in blood glucose level
[3]; HFD+3xYQ vs HFD
  body weight: lower body weight
  fat mass: decrease
[3]; HFD+3xYQ vs HFD, 1, 5 or 8 weeks
  fasting blood glucose level: decrease in blood glucose level
[3]; HFD+3xYQ vs HFD, 15 weeks
  blood glucose level, glucose tolerance test (GTT): decrease in blood glucose level
[3]; HFD+3xYQ vs HFD, 16-hour collection
  urine volume: decrease
[3]; HFD+3xYQ vs HFD, 16 weeks
  blood glucose level, insulin tolerance test (ITT): decrease in blood glucose level
[3]; liver tissue, Western blot, HFD+3xYQ vs HFD
  expression level of IRβ: increase
